≈ marks a conversion by molar mass, not a printed value.
Assay: Toxicity in Artemia salina larvae after 24 hrs
Type: organism-based
Details: in vivo
For COc1cc2c(cc1OC)[C@]1(O)C(=O)c3ccc(O)cc3O[C@@H]1CO2, the LC50 at 24 h was 284 mg/L (≈ 826 µM).
With COc1ccc2c(c1)OC[C@H]1Oc3cc(O)ccc3C(c3cc([C@@H]4COc5cc(O)ccc5C4)ccc3OC)[C@@]21O (stereo partly drawn) [GLIRICIDIN] the LC50 at 24 h was 244 mg/L (≈ 439 µM).
COc1ccc2c(c1)OC[C@H]1Oc3cc(O)ccc3C(=O)[C@@]21O [GLIRICIDOL] showed an LC50 at 24 h of 50.7 mg/L (≈ 161 µM).

Source: ChEMBL document CHEMBL1158005, “New 12a-hydroxyrotenoids from gliricidia sepium bark” (J Nat Prod, 1999)
